# Measured values: patent US20230189864A1, “NON-THERAPEUTIC METHODS FOR MAINTAINING A HEALTHY BODY WEIGHT OR LOSING BODY WEIGHT” (FrieslandCampina Nederland B.V., priority 2019, published 2023)
# Key:
# [1] = addition to infant formula; cited from earlier work
# [2] = tested on: pooled fecal microbiota from healthy lean subjects; assay: TIM-2 in vitro fermentation model, SCFA analysis; format: cell-based, human
# Description: The in vitro fermentation studies were done using the TIM-2 model. This is a validated, dynamic, computer-controlled model that simulates the human colon, mimicking body temperature, lumen pH, absorption of water and microbial metabolites through a semipermeable membrane inside the model, mixing and transporting the intestinal contents with peristaltic movements, using an anaerobic microbiota from human origin, it corresponds basically to the model as described in Minekus, M., et al. Appl. Microbiol. Biotechnol. 1999 53, 108 --- 114. doi: 10.1007/ s002530051622 and Kortman et al., Frontiers in Microbiology 2016, 6, 1481.
# Characteristics of the movements of the contents in the TIM-2 system were simulated using an increase of the pH and peristaltic movements of the contents in the system using peristaltic pumps as described in Minekus, M (1998. Development and validation of a dynamic model of the gastrointestinal tract. PhD thesis, Delft University of Technology, The Netherlands).
# SCFA analysis was performed at Brightlabs B.V., Venlo, The Netherlands), according to (Sáyago-Ayerdi SG, et al. Food Research International, E-pub date 13 Dec. 2017; Sayago Ayerdi et al Food Research International 118 (2019) 89-95).
# Pooled fecal microbiota samples from 11 healthy lean subjects not suffering from any metabolic disease was used to inoculate the TIM-2 in vitro fermentation model.
# The fecal microbiota was freshly sampled in and stored directly (within 2 h) on ice and under anaerobic conditions. Next, in an anaerobic cabinet, samples were diluted 1:1 with dialysate, and pooled at approximately equal weight, after which glycerol was added (to a final concentration of 12-13 w/w) and aliquots (30 ml/tube) were frozen in liquid nitrogen and stored at -80 ℃. […]
# Samples (1 mL) were taken for SCFA analysis after 1, 2, 4, 6, 8 and 24 h after test product insertion; cumulative absolute amounts of SCFA were determined. […] The acids were detected using suppressed conductivity detection. […]
# [3] = overweight men, cited from earlier work
# [4] = TIM-2, microbiota of lean subjects (18.5 kg/m^2 ≤ BMI < 25 kg/m^2), 8-24 h, represents distal colon, single shot 7.5 g 2′-FL (± 7.5 g RS)
# [5] = administered in the distal part of the colon
Molecule,safety and tolerance [1],"SCFA levels and in particular acetate levels in the distal colon (in words) ([2]; TIM-2, lean subjects' microbiota)","Acetate produced between 8 and 24 hours after insertion of the test product [2, 4] [mmol]","SCFA produced between 8 and 24 hours after insertion of the test product [2, 4] [mmol]","circulating plasma concentrations of peptide YY (PYY) [3, 5]","fat oxidation [3, 5]",energy expenditure or substrate oxidation ([3]; administered in the proximal colon)
2′-Fucosyllactose [2′-FL w/o RS],safe and well-tolerated,increased,12,21,,,
CC(=O)[O-].[Na+] [sodium acetate],,,,,significantly increased,significantly increased,no effect
